Data on one molecule can be found in patent publication US20130252983A1, “ACTIVATING PHOSPHORYLATION SITE ON GLUTAMINASE C” (CORNELL UNIVERSITY, priority 2010, published 2013).

The target in assay [1] is T1, GA activity of NIH 3T3 cells stably expressing Dbl or Cdc42(F28L) (Mus musculus, UniProt D3Z7P3).
T1 construct: endogenous in cells; host or cells: NIH 3T3 cells stably expressing Dbl or Cdc42(F28L); mitochondrial fraction
T1 sequence (D3Z7P3 55-603 isoform D3Z7P3-2): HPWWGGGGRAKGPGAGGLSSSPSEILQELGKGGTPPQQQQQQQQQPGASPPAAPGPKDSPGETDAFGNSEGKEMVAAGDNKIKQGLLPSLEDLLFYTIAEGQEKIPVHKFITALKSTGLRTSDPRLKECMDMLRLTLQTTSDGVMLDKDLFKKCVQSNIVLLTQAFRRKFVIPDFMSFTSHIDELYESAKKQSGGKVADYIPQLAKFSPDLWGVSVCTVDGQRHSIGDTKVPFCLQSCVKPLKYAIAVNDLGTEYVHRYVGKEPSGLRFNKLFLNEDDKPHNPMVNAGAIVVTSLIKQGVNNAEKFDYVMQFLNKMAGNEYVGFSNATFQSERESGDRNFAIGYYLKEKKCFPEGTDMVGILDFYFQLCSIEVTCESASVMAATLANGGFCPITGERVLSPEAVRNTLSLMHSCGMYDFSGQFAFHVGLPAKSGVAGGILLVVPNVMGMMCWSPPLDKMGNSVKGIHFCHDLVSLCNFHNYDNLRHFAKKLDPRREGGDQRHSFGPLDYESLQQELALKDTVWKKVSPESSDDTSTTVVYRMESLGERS
The assay can be described thus: GA activity in mitochondrial fractions of treated transformed NIH 3T3 cells. It is filed as cell-based. As for the experimental part: (§1) 100%=620 moles of glutamine hydrolyzed per minute per mole of enzyme. Data represent the average of 3 experiments (±s.d.). […] Following precipitation of the beads and re-suspension, the samples were analyzed by Western blotting with anti-V5 antibody. […] Data represent the average of 3 experiments (±s.d.). […] Data represent the average of 3 experiments (±s.d.). […] Data represent the average of 3 experiments (±s.d.). FIG. 3E NIH 3T3 cells transiently expressing Dbl were assayed for focus formation in the presence of 10 μM 968 alone or together with 7 mM dimethyl α-ketoglutarate. […] 100%=680 nM glutamine hydrolyzed per minute per 10^5 cells. Data are the average of 3 experiments (±s.d.). […] 100%=750 nM glutamine hydrolyzed per minute per 10^5 cells. Data represent the average of 3 experiments (±s.d.).
(§2) FIGS. 4A-E illustrate the role of glutaminase C activity in cellular transformation. […] Data represent the average of 3 experiments (±s.d.). […] Data represent the average of 3 experiments (±s.d.). […] 100% represents the activity measured in untreated Dbl-transformed cells. The data represent the average of 2 experiments. […] 100% represents the activity measured in untreated SKBR3 cells. The data represent the average of 2 experiments. […] Data represent the average of 3 experiments (±s.d.).
FIGS. 11A-E illustrate the effects of different treatments on GA activity. […] The addition of Pi stimulated the GA activity in control 3T3 cells, Dbl-expressing cells, and Cdc42(F28L)-expressing cells by ˜6-fold, 2-fold, and 3-fold, respectively. 100% represents the Pi-stimulated activity measured for Dbl-transformed cells that were not treated with 968. Data is the average of 3 experiments (±s.d.). […] The addition of Pi stimulated the GA activity of HMECs, MDA-MB231 cells, and SKBR3 cells by ˜5-fold, 2-fold, and 1.4-fold, respectively. 100% represents the Pi-stimulated activity for SKBR3 cells that were not treated with 968. Data are the average of 3 experiments (±s.d.). […] Mitochondrial fractions were prepared from equal numbers of cells and assayed for GA activity in the presence or absence of 133 mM Pi. The data are plotted as the percentage of GA activity measured for untreated SKBR3 cells and represent the average of 2 experiments. […] 100% represents the Pi-stimulated activity measured for untreated Dbl-transformed cells. The data represent the average of 2 experiments. […] 100% represents the Pi-stimulated activity for untreated SKBR3 cells. The data represent the average of 2 experiments.
Dbl expressing NIH 3T3 cells were treated for 48 hours in the presence or absence of 968 (10 μM), Bay 11-7082 (2 μM) or Rapamycin (100 nM). Mitochondria were then isolated from the treated cells and assayed for glutaminase activity in the absence or presence of phosphate.
Mitochondrial preparations were obtained using the mitochondria isolation kit from QIAGEN (Cat #37612). A suspension containing 2×10^7 cells was transferred into a 50 ml conical tube and centrifuged at 500×g for 10 minutes at 4° C. The pellets were resuspended in 2 ml of ice-cold lysis buffer (supplied by QIAGEN) and incubated for 10 minutes at 4° C. using an end-over-end shaker. The lysates were centrifuged at 1000×g for 10 minutes at 4° C., and the pellets were resuspended in a buffer supplied by the manufacturer and disrupted completely by using a blunt-ended, 23-gauge needle and a syringe, followed by centrifugation at 6000×g for 20 minutes at 4° C. […]

The target of a further assay is T2, GAC phosphorylation (Mus musculus, UniProt D3Z7P3).
T2 construct: expressed in transfected cells; host or cells: NIH 3T3 cells (stably expressing Dbl, or parental), transient transfection
T2 sequence (D3Z7P3 55-603 isoform D3Z7P3-2 limits assumed): T1 sequence (D3Z7P3 55-603 isoform D3Z7P3-2)
Kind of assay: 2-D gel analysis of V5-GAC phosphorylation states from treated Dbl cells. It is filed as cell-based. Particulars: 48 hours. The method, then:
NIH 3T3 cells stably expressing the Dbl oncogene, were transiently transfected with DNA encoding a VS-tagged GAC, and then one sample was treated with 968 (10 μM) for 48 hours. The cells were then harvested and the ectopically expressed GAC was isolated by immunoprecipitation via the V5 tag. The samples were then subjected to 2-D gel analysis to separate the V5-GAC by charge and size, and the V5-tagged GAC was visualized by Western blotting using an anti-V5 antibody.
GAC runs distinctly on a 2D gel depending whether it is expressed in normal (untransformed) NIH 3T3 cells or in NIH 3T3 cells which are transformed by the Dbl oncogene. Specifically, there is one major species of GAC present in NIH 3T3 cells whereas in Dbl cells, two additional species of GAC appear which migrate with a more negative charge but at the same molecular mass as the original species (FIG. 21, first and second panels). […] Additionally, it has been shown that small molecules of the 968 family which are able to inhibit GAC in vivo do so by blocking the ability of GAC to become phosphorylated. Thus, it was of great interest to identify the amino acid(s) on GAC whose phosphorylation is causal in the activation of this enzyme.

The subject of assay [2] is GA activity of SKBR3 cells. The assay can be described thus: GA activity in mitochondrial fractions of treated SKBR3 cells. The format is cell-based, human. Particulars: 2 μM. The method, then: as §1, §2
FIGS. 11A-E illustrate the effects of different treatments on GA activity. […] The addition of Pi stimulated the GA activity in control 3T3 cells, Dbl-expressing cells, and Cdc42(F28L)-expressing cells by ˜6-fold, 2-fold, and 3-fold, respectively. 100% represents the Pi-stimulated activity measured for Dbl-transformed cells that were not treated with 968. Data is the average of 3 experiments (±s.d.). […] The addition of Pi stimulated the GA activity of HMECs, MDA-MB231 cells, and SKBR3 cells by ˜5-fold, 2-fold, and 1.4-fold, respectively. […] The data are plotted as the percentage of GA activity measured for untreated SKBR3 cells and represent the average of 2 experiments. […] 100% represents the Pi-stimulated activity measured for untreated Dbl-transformed cells. […]

On to `CC(C)(C)c1ccc(S(=O)(=O)/C=C/C#N)cc1` [BAY 11-7082, E3((4-t-butylphenyl)-sulfonyl)-2-propenenitrile], for which the mitochondrial glutaminase activity result in assay [1] (Dbl expressing NIH 3T3 cells, 48 hours, Bay 11-7082 (2 μM), Rapamycin (100 nM)) is “significant loss of glutaminase activity”. Further, the “direct stimulation of the enzyme by phosphate (Pi-stimulated GA activity)” value in assay [1] (Dbl-transformed cells, 2 μM) is given as “little or no effect”; in assay [2] it was “little or no effect”. The “basal (phosphate-independent) GA activity” value was “significantly reduces their basal GA activity” in assay [1] (Dbl-transformed cells, 2 μM, 2 days) and “significantly reduces their basal GA activity” in assay [2]. The “most negative migrating major species of GAC on 2D gel” value on GAC phosphorylation is reported as “loss of the most negative migrating major species of GAC”.
